# Target: T1, Full length human PDE2A protease (Homo sapiens, UniProt O00408)
# T1 construct: Full length human PDE2A protease; GST (N); host or cells: insect Sf9 cells (baculovirus)
# Assay: In vitro evaluation of PDE2 phosphodiesterase inhibitory activity (Transcreener AMP2/GMP2 fluorescence polarization)
# Assay type: biochemical
# Settings: not given
# Experimental: In Vitro Evaluation of PDE2 Phosphodiesterase Inhibitory Activity Experimental objectives: To detect the concentration of AMP/GMP produced in the reaction system by measuring the fluorescence intensity of the fluorescent dye AlexaFluor 633 substituted on AMP/GMP antibody and to calculate the PDE2 phosphodiesterase inhibitory IC50 value of the test compound. Test buffer solution: 10 mM Tris-HCl, pH 7.5, 5 mM MgCl2, 0.01% Brij 35, 1 mM DTT, and 1% DMSO. Enzyme: Full length human PDE2A protease expressed and recombined in insect Sf9 cells with baculovirus using N-terminal GST tag […] Transcreener® AMP^2/GMP^2 antibody, AMP2/GMP2 AlexaFluor 633 fluorescent dye The enzyme solution was prepared with freshly prepared buffer solution and then added to the reaction wells. The DMSO solution of the test compound was added by Echo550 non-contact nanoscale sonicate pipetting system and preincubated for 10 minutes at room temperature. The reaction was initiated by addition of substrate (1 μM cGMP) and allowed to react for one hour at room temperature. The detection system (Transcreener® AMP^2/GMP^2 antibody, AMP2/GMP2 AlexaFluor 633 fluorescent dye) was then added and reacted for 90 minutes at room temperature before fluorescence polarization was detected using Ex/Em 620/688. The intensity of fluorescence polarization was converted to nM concentration by the AMP/GMP standard curve and then relative inhibition of enzyme activity relative to DMSO blank was calculated. IC50 values and curves were calculated using the Prism software package (GraphPad Software, San Diego Calif., USA)
# T1 sequence (O00408 whole entry): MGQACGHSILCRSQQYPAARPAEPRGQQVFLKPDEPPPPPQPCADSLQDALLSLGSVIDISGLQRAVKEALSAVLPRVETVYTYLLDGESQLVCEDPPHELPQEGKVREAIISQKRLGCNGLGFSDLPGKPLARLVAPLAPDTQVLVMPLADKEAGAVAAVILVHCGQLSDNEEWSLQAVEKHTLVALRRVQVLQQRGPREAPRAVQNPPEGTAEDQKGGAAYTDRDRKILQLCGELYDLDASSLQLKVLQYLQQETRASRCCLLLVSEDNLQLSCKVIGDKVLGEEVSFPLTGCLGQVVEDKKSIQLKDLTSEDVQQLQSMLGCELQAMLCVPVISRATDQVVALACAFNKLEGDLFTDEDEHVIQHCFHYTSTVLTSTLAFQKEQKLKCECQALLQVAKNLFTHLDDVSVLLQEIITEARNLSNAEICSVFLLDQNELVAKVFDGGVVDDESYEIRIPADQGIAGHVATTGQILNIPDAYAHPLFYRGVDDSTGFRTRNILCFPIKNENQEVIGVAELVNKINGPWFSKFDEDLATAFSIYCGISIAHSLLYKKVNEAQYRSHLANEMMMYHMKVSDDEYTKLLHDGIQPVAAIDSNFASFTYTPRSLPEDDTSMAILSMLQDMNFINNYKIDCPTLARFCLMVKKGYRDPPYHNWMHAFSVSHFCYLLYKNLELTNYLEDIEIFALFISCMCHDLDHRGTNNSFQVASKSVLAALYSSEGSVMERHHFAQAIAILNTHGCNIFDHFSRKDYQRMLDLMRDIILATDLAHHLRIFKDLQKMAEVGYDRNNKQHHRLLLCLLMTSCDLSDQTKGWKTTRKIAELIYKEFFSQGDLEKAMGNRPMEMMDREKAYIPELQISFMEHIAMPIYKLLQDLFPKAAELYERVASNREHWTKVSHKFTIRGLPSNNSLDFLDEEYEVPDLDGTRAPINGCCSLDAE
row,SMILES,IC50 [µM]
1,"COc1ccc(Cn2c(=O)c3c(ncn3C)n(C)c2=O)cn1 [Example 48, 1-((6-Methoxypyridin-3-yl)methyl)-3,7-dimethyl-1H-purine-2,6(3H,7H)-dione]",10 to 50

# Same assay, conditions: recombinant full length human PDE2A, substrate 1 μM cGMP, 1 hour at room temperature; read-out: PDE2 phosphodiesterase inhibitory activity
row,SMILES,IC50 [µM]
1,"Cc1cc(CCCCn2c(=O)c3c(cnn3CC(F)(F)F)n(C)c2=O)on1 [Example 75, 4-Methyl-6-(4-(3-methylisoxazol-5-yl)butyl)-1-(2,2,2-trifluoroethyl)-pyrazolo[4,3-d]pyrimidine-5,7-dione]",10 to 50
2,"Cn1cnc2c1c(=O)n(CCCCCc1nn[nH]n1)c(=O)n2C [Example 39, 1-(5-(2H-tetrazol-5-yl)pentyl)-3,7-dimethyl-1H-purine-2,6(3H,7H)-dione]",10 to 50
3,"Cc1cc(CCCCn2c(=O)c3c(ncn3C(C)C)n(C)c2=O)on1 [Example 54, 7-Isopropyl-3-methyl-1-(4-(3-methylisoxazol-5-yl)butyl)-1H-purine-2,6(3H,7H)-dione]",10 to 50
4,"Cn1ncc(CCCCn2c(=O)c3c(ncn3C)n(C)c2=O)n1 [Example 35, 3,7-Dimethyl-1-(4-(2-methyl-2H-1,2,3-triazol-4-yl)butyl)-1H-purine-(3H,7H)-dione]",10 to 50
5,"Cn1cnc2c1c(=O)n(CCCc1nc3ccccc3s1)c(=O)n2C [Example 43, 1-(3-(Benzo[d]thiazol-2-yl)propyl)-3,7-dimethyl-1H-purine 2,6(3H,7H)-dione]",10 to 50
6,"Cc1cc(CCCCn2c(=O)c3c(ncn3C(F)F)n(C)c2=O)on1 (single isomer, unassigned) [Example 49 Isomer 1, 7-(Difluoromethyl)-3-methyl-1-(4-(3-methylisoxazol-5-yl)butyl)-1H-purine-2,6(3H,7H)-dione]",10 to 50
7,"Cn1cnc2c1c(=O)n(CCCCc1cn[nH]n1)c(=O)n2C [Example 34, 1-(4-(2H-1,2,3-triazol-4-yl)butyl)-3,7-dimethyl-1H-purine-2,6(3H,7H)-dione]",10 to 50
8,"Cc1nc(C)c(Cn2c(=O)c3c(ncn3C)n(C)c2=O)s1 [Example 29, 1-((2,4-Dimethylthiazol-5-yl)methyl)-3,7-dimethyl-1H-purine-2,6(3H,7H)-dione]",10 to 50
9,"Cc1cc(CCCCn2c(=O)c3cc[nH]c3n(C)c2=O)on1 [Example 66, 1-Methyl-3-(4-(3-methylisoxazol-5-yl)butyl)-1H-pyrrolo[2,3-d]pyrimidine-2,4(3H,7H)-dione]",10 to 50
10,"Cn1cnc2c1c(=O)n(CCCCc1nn[nH]n1)c(=O)n2C [Example 37, 1-(4-(2H-tetrazol-5-yl)butyl)-3,7-dimethyl-1H-purine-2,6(3H,7H)-dione]",10 to 50
11,"Cc1cc(CCCCn2c(=O)c3nn(C)cc3n(C)c2=O)on1 [Example 69, 2,4-Dimethyl-6-[4-(3-methylisoxazol-5-yl)-butyl]-2,4-dihydro-pyrazolo[4,3-d]pyrimidine-5,7-dione]",10 to 50
12,"Cc1cc(CCCCn2c(=O)c3c(ncn3C)n(C)c2=O)[nH]n1 [Example 12, 3,7-Dimethyl-1-(4-(3-methyl-1H-pyrazol-5-yl)butyl)-1H-purine-2,6(3H,7H)-dione]",10 to 50
13,Cn1cnc2c1c(=O)n(CCCc1[nH]nc3c1CCCC3)c(=O)n2C [Example 44],10 to 50
14,"Cn1nnnc1CCCCCn1c(=O)c2c(ncn2C)n(C)c1=O (single isomer, unassigned) [Example 40 Isomer 1, 3,7-Dimethyl-1-(5-(1-methyl-1H-tetrazol-5-yl)pentyl)-1H-purine-(3H,7H)-dione]",10 to 50
15,"Cn1nnc(CCCCn2c(=O)c3c(ncn3C)n(C)c2=O)n1 [Example 38 Isomer 1, 3,7-Dimethyl-1-(4-(2-methyl-2H-tetrazol-5-yl)butyl)-1H-purine-(3H,7H)-dione]",10 to 50
16,"CC(C)c1oncc1Cn1c(=O)c2c(ncn2C)n(C)c1=O [Example 22, 1-((5-Isopropylisoxazol-4-yl)methyl)-3,7-dimethyl-1H-purine-2,6(3H,7H)-dione]",10 to 50
17,"Cc1cc(CCCCn2c(=O)c3c(cnn3CC3CC3)n(C)c2=O)on1 [Example 81, 1-(Cyclopropylmethyl)-4-methyl-6-(4-(3-methylisoxazol-5-yl)butyl)-pyrazolo[4,3-d]pyrimidin-5,7-dione]",10 to 50

# Now from value to compound:
row,IC50 [µM],SMILES
1,10 to 50,"CCc1cc(CCn2c(=O)c3c(ncn3C)n(C)c2=O)nn1C [Example 11 Product 2, 1-(2-(5-Ethyl-1-methyl-1H-pyrazol-3-yl)ethyl)-3,7-dimethyl-1H-purine-2,6(3H,7H)-dione]"
2,10 to 50,"Cc1cc(CCCCn2c(=O)c3ccccc3n(C)c2=O)on1 [Example 83, 1-Methyl-3-(4-(3-methylisoxazol-5-yl)butyl)quinazoline-2,4(1H,3H)-dione]"
3,10 to 50,"Cn1nnc(CCCCCn2c(=O)c3c(ncn3C)n(C)c2=O)n1 (single isomer, unassigned) [Example 40 Isomer 2, 3,7-Dimethyl-1-(5-(1-methyl-2H-tetrazol-5-yl)pentyl)-1H-purine-(3H,7H)-dione]"
4,10 to 50,"Cc1cc(CCCCn2c(=O)c3c(ncn3CC3(C)COC3)n(C)c2=O)on1 [Example 61, 3-Methyl-1-(4-(3-methylisoxazol-5-yl)butyl)-7-((3-methyloxetan-3-yl)methyl)-1H-purine-2,6(3H,7H)-dione]"
5,10 to 50,"Cc1cc(CCCCn2c(=O)c3c(ncn3C)n(C)c2=O)n(C)n1 (single isomer, unassigned) [Example 14 Isomer 1, 1-(4-(1,3-dimethyl-1H-pyrazol-5-yl)butyl)-3,7-dimethyl-1H-purine-2,6(3H,7H)-dione]"
6,1 to 10,Cc1cc(CC2CCCC(n3c(=O)c4c(ncn4C)n(C)c3=O)C2)on1 (stereo not shown) [Example 28]
7,10 to 50,"Cc1cc(CCCCn2c(=O)c3c(ncn3CC(F)(F)F)n(C)c2=O)on1 [Example 51, 3-Methyl-1-(4-(3-methylisoxazol-5-yl)butyl)-7-(2,2,2-trifluoroethyl)-1H-purine-2,6(3H,7H)-dione]"
8,10 to 50,"Cc1cc(CCCCn2c(=O)c3ccn(C)c3n(C)c2=O)on1 [Example 67, 1,7-Dimethyl-3-(4-(3-methylisoxazol-5-yl)butyl)-1H-pyrrolo[2,3-d]pyrimidine-2,4(3H,7H)-dione]"
9,10 to 50,"Cc1cc(CCCCn2c(=O)c3c(ncn3C)n(C)c2=O)no1 [Example 20, 3,7-Dimethyl-1-(4-(5-methylisoxazol-3-yl)butyl)-1H-purine-2,6(3H,7H)-dione]"
10,1 to 10,"Cc1noc(C)c1Cn1c(=O)c2c(ncn2CC2CC2)n(C)c1=O [Example 57, 7-(Cyclopropylmethyl)-1-((3,5-dimethylisoxazol-4-yl)methyl)-3-methyl-1H-purine-2,6-(3H,7H)-dione]"
11,1 to 10,CC(C)c1oncc1Cn1c(=O)c2c(ncn2CC2CC2)n(C)c1=O [Example 58]
12,1 to 10,"CCCn1cnc2c1c(=O)n(CCCCc1cc(C)no1)c(=O)n2C [Example 52, 3-Methyl-1-(4-(3-methylisoxazol-5-yl)butyl)-7-propyl-1H-purine-2,6(3H,7H)-dione]"
13,1 to 10,"Cc1cc(-c2ccc(Cn3c(=O)c4c(ncn4C)n(C)c3=O)cc2)on1 [Example 45, 3,7-Dimethyl-1-[4-(3-methylisoxazol-5-yl)-benzyl]-3,7-dihydro-purine-2,6-dione]"
14,1 to 10,"Cc1cc(CCCCn2c(=O)c3c(ncn3CC(C)C)n(C)c2=O)on1 [Example 60, 7-Isobutyl-3-methyl-1-(4-(3-methylisoxazol-5-yl)butyl)-1H-purine-2,6(3H,7H)-dione]"
15,1 to 10,"CCCCn1cnc2c1c(=O)n(CCCCc1cc(C)no1)c(=O)n2C [Example 55, 7-Butyl-3-methyl-1-(4-(3-methylisoxazol-5-yl)butyl)-1H-purine-2,6(3H,7H)-dione]"
16,1 to 10,Cn1cnc2c1c(=O)n(CCCc1c[nH]c3ccccc13)c(=O)n2C [Example 41]
17,1 to 10,"CCn1cnc2c1c(=O)n(CCCCc1cc(C)no1)c(=O)n2C [Example 50, 7-Ethyl-3-methyl-1-(4-(3-methylisoxazol-5-yl)butyl)-1H-purine-2,6(3H,7H)-dione]"
18,1 to 10,"Cn1cnc2c1c(=O)n(CCCCc1cc3ccccc3o1)c(=O)n2C [Example 42, 1-(4-(Benzofuran-2-yl)butyl)-3,7-dimethyl-1H-purine-2,6(3H,7H)-dione]"
19,1 to 10,"Cc1cc(CCCCn2c(=O)c3c(ncn3CC3CC3)n(C)c2=O)on1 [Example 56, 7-(Cyclopropylmethyl)-3-methyl-1-(4-(3-methylisoxazol-5-yl)butyl)-1H-purine-2,6(3H,7H)-dione]"

# From patent publication US10278973B2, “Hydroxyl purine compounds and use thereof” (GUANGDONG RAYNOVENT BIOTECH CO., LTD., priority 2015, dated 2019)
